Data: US20220125959A1, “PROSTATE-SPECIFIC MEMBRANE ANTIGEN (PSMA) INHIBITORS AS DIAGNOSTIC AND RADIONUCLIDE THERAPEUTIC AGENTS” (FIVE ELEVEN PHARMA INC., priority 2019, published 2022)
Values joined by “and” are separate entries in the source; they are usually repeats but may differ in a detail not shown here. Equal values may be shown once.

Experiments:
[1] = system: PSMA-negative cell line, PC3; test: In vitro cell uptake, PC3 cells; type: cell-based; conditions: PC3 (do not express PSMA), 60 min
Procedure: (§1) To determine the cell uptakes of the [^177Lu] labelled ligands, 5×10^5 cells/well were grown in 12-well plates in 1 mL of medium for 48 h. The cells were washed twice with PBS, and 900 μL fresh media were added. Radiolabelled ligand was added and the PSMA-inhibitor (2-PMPA) was applied in a final concentration of 10 μM to determine unspecific binding. All samples were prepared in triplicate. Following the incubation at 37° C., cells were washed twice to remove unbound activity and afterwards lysed in 1 mL of 0.5 M NaOH. Activity was measured in a gamma counter. Aliquots of the solution added to the cells were also measured for the calculation of the cellular uptake as % ID.

[2] = system: PSMA-positive cell line, PIP PC3; test: In vitro cell uptake, PIP PC3 cells; type: cell-based
Procedure: as §1, with “Radiolabelled ligand was added and the PSMA-inhibitor (2-PMPA) was applied in a final concentration of 10 μM to determine unspecific binding.” left out

[3] = system: PC3-PIP (PSMA positive) and PC-3 tumors (PSMA negative); test: Biodistribution of 177Lu labeled compounds 4 and 7 in tumor bearing nude mice; type: in vivo, CD-1 male nude mice
Procedure: (§2) ^177Lu labeling: To 10 μg ligand (1 mg/mL DMSO) were added 15 μL of 2.0 N NaOAc, 400 μL 0.05 N HCl, and 20 μL ^177Lu-solution (780 μCi (Capintec setting 450 (reading×10)). The reaction was heated with a heating block at 95° C. for 1 hour in a 3 mL closed vial. After cooling, the sample was analyzed by HPLC (HPLC: Eclipse XDB-C18 150×4.6 mm, gradient, 1 mL/min; A: 0.1% TFA in water; B: 0.1% TFA in ACN: 0-4 min A/B 85/15%; 4-11 min: from 85/15 to 30/70%; 11-14 min: from 30/70% to 85/15%). Radiochemical purity of [^177Lu]4 (FIG. 2) and [^177Lu]7 was >98% and injected doses were stable at 48 hr after formulation.
(§3) For iv injection 150 μL of labeled solution was diluted with saline to 3.75mL. Mice were injected with 150 μL of formulated dose. Injected radioactivity was 100 μCi and PSMA ligand amount was constant at 0.72 nmole/mouse.
Biodistribution of [^68Ga]4, [^177Lu]4 and [^177Lu]7 was determined in nude mice bearing PIP PC3 (PSMA positive) and PC3 (PSMA negative) tumors on the left and right shoulder, respectively, over a period of 192 h (Table 3a, 3b and 3c). […] The uptake in PC3 tumors (PSMA negative) of both ligands, [^177Lu]4 and [^177Lu]7, was clearly much lower than those of PC-3 PIP tumors (PSMA positive).

[4] = Stability of injected doses after formulation; type: physicochemical; conditions: at 48 hr after formulation
Procedure: ^68Ga labeling: To 15 nmole ligand 4 (1 mg/mL DMSO) were added 20 μL of 2.0 N NaOAc, 500 μL ^68Ga-solution (2.25 mCi). The reaction was heated in a heating block at 90° C. for 10 minutes in a 3 mL closed vial. After cooling, the sample was analyzed by HPLC (HPLC: Eclise XDB C18 150×4.6 mm, gradient, 2 mL/min; A: 0.1% TFA in water; B: 0.1% TFA in ACN: 0-2 min 100% A; 2-4 min: from 0% to 100% B; 4-9 min: 100% B; 9-10 min: from 100% to 0% B). Radiochemical purity of [^68Ga]4 was >99% RCP (FIG. 1) and injected doses were stable at 2 hr after formulation.
as §2, §3

Structure (SMILES): O=C(O)CCC(C(=O)O)N1CCN(CC(=O)O)CCN(C(CCC(=O)NCC(=O)N[C@@H](Cc2ccc(OCC(=O)N[C@@H](Cc3ccccc3)C(=O)NCCCC[C@H](NC(=O)N[C@@H](CCC(=O)O)C(=O)O)C(=O)O)cc2)C(=O)O)C(=O)O)CCN(CC(=O)O)CC1.[177Lu] (stereo partly shown) [[^177Lu]4]
- In vitro cell uptake [1]: 0.4 % ID per 5 × 10^5 cells
- Uptakes compared with reference ligand [177Lu]PSMA-617 ([2]; PIP PC3): much higher uptakes
- In vitro cell uptake ([2]; PIP PC3, 5 min): 4.0 % ID per 5 × 10^5 cells
- In vitro cell uptake ([2]; PIP PC3, 15 min): 7.5 % ID per 5 × 10^5 cells
- In vitro cell uptake ([2]; PIP PC3, 30 min): 11.2 % ID per 5 × 10^5 cells
- In vitro cell uptake ([2]; PIP PC3, 60 min): 13.4 % ID per 5 × 10^5 cells
- In vitro cell uptake ([2]; PIP PC3, 60 min, with PSMA inhibitor (2-PMPA, 2 uM)): 0.9 % ID per 5 × 10^5 cells
- In vitro cell uptake ([2]; PIP PC3, 120 min): 14.9 % ID per 5 × 10^5 cells
- Biodistribution: Blood ([3]; 1 hr): 0.27 ± 0.07 % dose/g
- Biodistribution: Bone ([3]; 1 hr): 0.15 ± 0.05 % dose/g
- Biodistribution: Brain ([3]; 1 hr): 0.02 ± 0.01 % dose/g
- Biodistribution: Heart ([3]; 1 hr): 0.17 ± 0.03 % dose/g
- Biodistribution: Intestine ([3]; 1 hr): 0.19 ± 0.08 % dose/g
- Biodistribution: Kidney ([3]; 1 hr): 45.59 ± 20.51 % dose/g
- Biodistribution: Liver ([3]; 1 hr): 0.18 ± 0.05 % dose/g
- Biodistribution: Lung ([3]; 1 hr): 0.63 ± 0.13 % dose/g
- Biodistribution: Muscle ([3]; 1 hr): 0.18 ± 0.06 % dose/g
- Biodistribution: PC3 tumor ([3]; 1 hr): 1.13 ± 0.61 % dose/g
- Biodistribution: PIP PC3 tumor ([3]; 1 hr): 15.27 ± 2.93 % dose/g
- Biodistribution: Pancreas ([3]; 1 hr): 0.43 ± 0.20 % dose/g
- Biodistribution: Skin ([3]; 1 hr): 0.35 ± 0.07 % dose/g
- Biodistribution: Spleen ([3]; 1 hr): 1.42 ± 1.44 % dose/g
- Biodistribution: Stomach ([3]; 1 hr): 0.20 ± 0.10 % dose/g
- Biodistribution: Blood ([3]; 4 hrs): 0.02 % dose/g and 0.02 ± 0.01 % dose/g
- Biodistribution: Bone ([3]; 4 hrs): 0.05 ± 0.01 % dose/g
- Biodistribution: Brain ([3]; 4 hrs): 0.01 ± 0.00 % dose/g
- Biodistribution: Heart ([3]; 4 hrs): 0.11 ± 0.07 % dose/g
- Biodistribution: Intestine ([3]; 4 hrs): 0.21 ± 0.11 % dose/g
- Biodistribution: Kidney ([3]; 4 hrs): 21.17 ± 5.08 % dose/g
- Biodistribution: Liver ([3]; 4 hrs): 0.09 ± 0.03 % dose/g
- Biodistribution: Lung ([3]; 4 hrs): 0.20 ± 0.05 % dose/g
- Biodistribution: Muscle ([3]; 4 hrs): 0.05 ± 0.01 % dose/g
- Biodistribution: PC3 tumor ([3]; 4 hrs): 0.28 ± 0.08 % dose/g
- Biodistribution: PIP PC3 tumor ([3]; 4 hrs): 22.38±3.50 % dose/g
- Biodistribution: Pancreas ([3]; 4 hrs): 0.18 ± 0.10 % dose/g
- Biodistribution: Skin ([3]; 4 hrs): 0.12 ± 0.05 % dose/g
- Biodistribution: Spleen ([3]; 4 hrs): 0.53 ± 0.26 % dose/g
- Biodistribution: Stomach ([3]; 4 hrs): 0.12 ± 0.02 % dose/g
- Biodistribution: Blood ([3]; 24 hrs (1 day)): 0.002 ± 0.000 % dose/g
- Biodistribution: Bone ([3]; 24 hrs (1 day)): 0.022 ± 0.010 % dose/g
- Biodistribution: Brain ([3]; 24 hrs (1 day)): 0.006 ± 0.001 % dose/g
- Biodistribution: Heart ([3]; 24 hrs (1 day)): 0.011 ± 0.002 % dose/g
- Biodistribution: Intestine ([3]; 24 hrs (1 day)): 0.132 ± 0.114 % dose/g
- Biodistribution: Kidney ([3]; 24 hrs (1 day)): 2.291 ± 0.761 % dose/g
- Biodistribution: Liver ([3]; 24 hrs (1 day)): 0.036 ± 0.003 % dose/g
- Biodistribution: Lung ([3]; 24 hrs (1 day)): 0.024 ± 0.005 % dose/g
- Biodistribution: Muscle ([3]; 24 hrs (1 day)): 0.012 ± 0.003 % dose/g
- Biodistribution: PC3 tumor ([3]; 24 hrs (1 day)): 0.071 ± 0.010 % dose/g
- Biodistribution: PIP PC3 tumor ([3]; 24 hrs (1 day)): 11.29 ± 2.62 % dose/g
- Biodistribution: Pancreas ([3]; 24 hrs (1 day)): 0.015 ± 0.004 % dose/g
- Biodistribution: Skin ([3]; 24 hrs (1 day)): 0.059 ± 0.029 % dose/g
- Biodistribution: Spleen ([3]; 24 hrs (1 day)): 0.047 ± 0.005 % dose/g
- Biodistribution: Stomach ([3]; 24 hrs (1 day)): 0.076 ± 0.026 % dose/g
- Biodistribution: Blood ([3]; 48 hrs (2 days)): 0.003 ± 0.002 % dose/g
- Biodistribution: Bone ([3]; 48 hrs (2 days)): 0.030 ± 0.010 % dose/g
- Biodistribution: Brain ([3]; 48 hrs (2 days)): 0.006 ± 0.002 % dose/g
- Biodistribution: Heart ([3]; 48 hrs (2 days)): 0.010 ± 0.000 % dose/g
- Biodistribution: Intestine ([3]; 48 hrs (2 days)): 0.059 ± 0.036 % dose/g
- Biodistribution: Kidney ([3]; 48 hrs (2 days)): 2.359 ± 1.504 % dose/g
- Biodistribution: Liver ([3]; 48 hrs (2 days)): 0.069 ± 0.067 % dose/g
- Biodistribution: Lung ([3]; 48 hrs (2 days)): 0.032 ± 0.028 % dose/g
- Biodistribution: Muscle ([3]; 48 hrs (2 days)): 0.006 ± 0.003 % dose/g
- Biodistribution: PC3 tumor ([3]; 48 hrs (2 days)): 0.080 ± 0.034 % dose/g
- Biodistribution: PIP PC3 tumor ([3]; 48 hrs (2 days)): 13.98 ± 6.41 % dose/g
- Biodistribution: Pancreas ([3]; 48 hrs (2 days)): 0.011 ± 0.001 % dose/g
- Biodistribution: Skin ([3]; 48 hrs (2 days)): 0.034 ± 0.015 % dose/g
- Biodistribution: Spleen ([3]; 48 hrs (2 days)): 0.133 ± 0.173 % dose/g
- Biodistribution: Stomach ([3]; 48 hrs (2 days)): 0.032 ± 0.014 % dose/g
- Biodistribution: Blood ([3]; 96 hrs (4 days)): 0.001 ± 0.000 % dose/g
- Biodistribution: Bone ([3]; 96 hrs (4 days)): 0.043 ± 0.038 % dose/g
- Biodistribution: Brain ([3]; 96 hrs (4 days)): 0.006 ± 0.001 % dose/g
- Biodistribution: Heart ([3]; 96 hrs (4 days)): 0.011 ± 0.006 % dose/g
- Biodistribution: Intestine ([3]; 96 hrs (4 days)): 0.040 ± 0.028 % dose/g
- Biodistribution: Kidney ([3]; 96 hrs (4 days)): 0.623 ± 0.072 % dose/g
- Biodistribution: Liver ([3]; 96 hrs (4 days)): 0.031 ± 0.003 % dose/g
- Biodistribution: Lung ([3]; 96 hrs (4 days)): 0.020 ± 0.009 % dose/g
- Biodistribution: Muscle ([3]; 96 hrs (4 days)): 0.006 ± 0.002 % dose/g
- Biodistribution: PC3 tumor ([3]; 96 hrs (4 days)): 0.047 ± 0.012 % dose/g
- Biodistribution: PIP PC3 tumor ([3]; 96 hrs (4 days)): 6.90 ± 1.87 % dose/g
- Biodistribution: Pancreas ([3]; 96 hrs (4 days)): 0.022 ± 0.011 % dose/g
- Biodistribution: Skin ([3]; 96 hrs (4 days)): 0.032 ± 0.019 % dose/g
- Biodistribution: Spleen ([3]; 96 hrs (4 days)): 0.033 ± 0.015 % dose/g
- Biodistribution: Stomach ([3]; 96 hrs (4 days)): 0.030 ± 0.002 % dose/g
- Biodistribution: Blood ([3]; 192 hrs (8 days)): 0.001 ± 0.000 % dose/g
- Biodistribution: Bone ([3]; 192 hrs (8 days)): 0.042 ± 0.035 % dose/g
- Biodistribution: Brain ([3]; 192 hrs (8 days)): 0.003 ± 0.001 % dose/g
- Biodistribution: Heart ([3]; 192 hrs (8 days)): 0.005 ± 0.000 % dose/g
- Biodistribution: Intestine ([3]; 192 hrs (8 days)): 0.162 ± 0.087 % dose/g
- Biodistribution: Kidney ([3]; 192 hrs (8 days)): 0.177 ± 0.009 % dose/g
- Biodistribution: Liver ([3]; 192 hrs (8 days)): 0.021 ± 0.005 % dose/g
- Biodistribution: Lung ([3]; 192 hrs (8 days)): 0.006 ± 0.003 % dose/g
- Biodistribution: Muscle ([3]; 192 hrs (8 days)): 0.003 ± 0.003 % dose/g
- Biodistribution: PC3 tumor ([3]; 192 hrs (8 days)): 0.022 ± 0.002 % dose/g
- Biodistribution: PIP PC3 tumor ([3]; 192 hrs (8 days)): 4.21 ± 1.03 % dose/g
- Biodistribution: Pancreas ([3]; 192 hrs (8 days)): 0.003 ± 0.001 % dose/g
- Biodistribution: Skin ([3]; 192 hrs (8 days)): 0.011 ± 0.003 % dose/g
- Biodistribution: Spleen ([3]; 192 hrs (8 days)): 0.032 ± 0.010 % dose/g
- Biodistribution: Stomach ([3]; 192 hrs (8 days)): 0.209 ± 0.131 % dose/g
- Uptake in PC3 tumors (PSMA negative) versus PC-3 PIP tumors (PSMA positive) ([3]; mouse, in vivo): much lower
- Stability of injected doses [4]: stable
